Values quoted from earlier work, collected in patent US20040156894A1, “Use of edible acids in fast-dispersing pharmaceutical solid dosage forms” (priority 2003, published 2004).
In brackets after ≈: the same amount, converted by molar mass.

Compound | water solubility
CS(=O)(=O)c1ccc(C2=C(c3ccccc3)C(=O)OC2)cc1 [rofecoxib] | 4 µg/mL (≈ 12.7 µM)
CN1C(C(=O)Nc2ccccn2)=C(O)c2ccccc2S1(=O)=O [piroxicam] | < 1000 µg/mL
